Where a name gives a salt, the structure may show the parent alone. Read-outs that look alike come from different tables or passages of the source.
How the values were obtained:
T5 nuclease = target: T1, T5 nuclease (Escherichia phage T5, UniProt P06229); experiment: T5 nuclease counter-screen (fluorescence nuclease assay); assay type: biochemical; parameters: concentration or dose not given beside the values; conditions: re-screening against T5 nuclease
T1 construct: purchased NEB
Description: (§1) The screen entailed the use of oligonucleotide (dT)30 having a reporter fluorescent moiety, 6-FAM on the 5′ end, and the dark quenching group, Iowa Black FQ, on the 3′ end. In addition, a second dark quencher ZEN was placed between the 9th and 10th base (Figure 2a). The fluorescence emitted by 6-FAM is quenched by FRET, but it increases when DNA is degraded by Dna2. […] The inhibitory activity of the compounds was determined as a reduction in fluorescent signal compared with the dimethylsulfoxide (DMSO) only control. […] We screened ~50 000 chemical compounds from six different libraries (Supplementary Table S1) to identify chemical inhibitors of the Dna2 nuclease activity. […] The DNA2 nuclease domain is well conserved among eukaryotes, and therefore we reasoned that inhibitors of yDna2 will likely also work with the human counterpart.
(§2) Initial screen, it was performed with yDna2.[22] Then, the top candidate compounds were tested on hDNA2. Identical reaction conditions were used for assaying the nuclease activity of yDna2 and hDNA2. […] The reaction buffer was 20 mM HEPES/NaOH, pH 7.5, 60 mM KCl, 1 mM DTT, 100 μg/ml bovine serum albumin and 0.05% Triton X-100. The nuclease assay was initiated by adding MgCl2 (3 mM final concentration). T5 nuclease was assayed in the buffer (50 mM potassium acetate, pH 7.9, 20 mM Tris-acetate, 10 mM magnesium acetate and 1 mM DTT) provided by the vendor (NEB, Ipswich, MA, USA). The concentration of the fluorogenic substrate was 0.1 μM. The optimal amount of yDna2, hDNA2 and T5 nuclease was determined by utilizing the Kaleidagraph software (Reading, PA, USA) to fit the data according to Michaelis Menton Kinetics (V=V0+Vmax*x/(Km+x)). […] The Z’ value was calculated as previously described.[50] Cell proliferation was determined using 4,6-diamidino-2-phenylindole staining followed by high-throughput microscopy in a 384-well plate setup. In brief, cells were fixed with formaldehyde, washed and stained with 4,6-diamidino-2-phenylindole and the number of nuclei in each well counted by automated microscopy. The data were analyzed as described.[51]

yDna2 = target: T2, yDna2 (Saccharomyces cerevisiae, UniProt P38859); experiment: High-throughput fluorescence nuclease assay with yDna2 (triply labeled (dT)30 ssDNA); assay type: biochemical, yeast; conditions: for inhibition at 33.33 µM: read-out: % Inhibition yDna2
T2 construct: made in house
T2 sequence (P38859 whole entry): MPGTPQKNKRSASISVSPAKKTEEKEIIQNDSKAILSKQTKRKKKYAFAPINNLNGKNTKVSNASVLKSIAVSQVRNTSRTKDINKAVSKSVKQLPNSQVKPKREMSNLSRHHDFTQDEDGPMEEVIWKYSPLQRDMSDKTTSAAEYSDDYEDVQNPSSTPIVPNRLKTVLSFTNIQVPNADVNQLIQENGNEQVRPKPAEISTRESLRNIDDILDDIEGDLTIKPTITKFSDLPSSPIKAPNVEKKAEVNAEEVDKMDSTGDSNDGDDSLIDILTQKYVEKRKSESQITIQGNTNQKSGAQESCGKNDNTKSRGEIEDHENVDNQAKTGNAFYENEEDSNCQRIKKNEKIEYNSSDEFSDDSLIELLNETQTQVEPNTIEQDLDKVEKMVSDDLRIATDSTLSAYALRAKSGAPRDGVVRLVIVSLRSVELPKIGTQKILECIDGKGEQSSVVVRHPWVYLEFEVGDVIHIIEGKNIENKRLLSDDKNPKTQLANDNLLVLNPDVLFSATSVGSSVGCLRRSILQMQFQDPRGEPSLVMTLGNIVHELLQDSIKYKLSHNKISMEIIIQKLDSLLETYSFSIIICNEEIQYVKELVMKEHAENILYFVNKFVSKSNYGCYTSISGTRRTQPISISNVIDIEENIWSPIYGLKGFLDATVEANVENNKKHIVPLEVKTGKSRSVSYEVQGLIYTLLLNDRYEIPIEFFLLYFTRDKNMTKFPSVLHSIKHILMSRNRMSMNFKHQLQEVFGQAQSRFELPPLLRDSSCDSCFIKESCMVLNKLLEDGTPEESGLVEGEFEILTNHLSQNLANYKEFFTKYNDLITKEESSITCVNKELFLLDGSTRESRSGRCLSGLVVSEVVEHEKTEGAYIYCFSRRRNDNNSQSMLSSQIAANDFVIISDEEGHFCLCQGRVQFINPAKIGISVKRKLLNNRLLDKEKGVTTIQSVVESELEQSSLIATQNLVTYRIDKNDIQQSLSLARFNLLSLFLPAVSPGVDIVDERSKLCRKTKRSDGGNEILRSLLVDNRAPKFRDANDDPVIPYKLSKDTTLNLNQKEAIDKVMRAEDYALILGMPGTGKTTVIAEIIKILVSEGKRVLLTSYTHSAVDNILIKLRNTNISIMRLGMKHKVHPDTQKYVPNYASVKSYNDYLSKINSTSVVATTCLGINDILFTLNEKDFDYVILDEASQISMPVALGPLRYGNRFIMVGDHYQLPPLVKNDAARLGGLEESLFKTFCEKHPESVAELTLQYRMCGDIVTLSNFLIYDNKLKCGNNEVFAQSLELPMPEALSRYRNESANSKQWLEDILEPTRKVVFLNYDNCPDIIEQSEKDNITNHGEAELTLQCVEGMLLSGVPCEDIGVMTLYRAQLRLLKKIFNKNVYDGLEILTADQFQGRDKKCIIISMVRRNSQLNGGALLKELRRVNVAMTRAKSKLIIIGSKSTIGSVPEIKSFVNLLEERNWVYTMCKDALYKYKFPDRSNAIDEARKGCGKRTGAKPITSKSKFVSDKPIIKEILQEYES
Description: as §1, §2

[1] = screen at fixed inhibitor concentration (33.33 μM), 0.09 nM Dna2

T1 sequence (P06229 whole entry): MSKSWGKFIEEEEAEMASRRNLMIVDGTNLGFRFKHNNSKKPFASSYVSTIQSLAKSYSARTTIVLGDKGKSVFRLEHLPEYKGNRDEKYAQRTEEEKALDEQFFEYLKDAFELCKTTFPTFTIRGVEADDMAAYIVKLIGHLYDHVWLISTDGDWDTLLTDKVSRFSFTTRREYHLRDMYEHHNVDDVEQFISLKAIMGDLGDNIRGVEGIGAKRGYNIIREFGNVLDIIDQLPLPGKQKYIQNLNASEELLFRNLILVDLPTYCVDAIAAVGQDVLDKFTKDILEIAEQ

| Compound | % Inhibition T5 nuclease (T5 nuclease) | inhibition at 33.33 µM (yDna2; [1]) | % Inhibition yDna2 (yDna2; [1]) | inhibition at 33.33 µM (yDna2) |
| --- | --- | --- | --- | --- |
| CN1CCN(c2ccc3nc(-c4c(N)c5c(F)cccc5[nH]c4=O)[nH]c3c2)CC1 [(Dovitinib) CHIR258, Dovitinib, reference compound] | 60.2% | 54% | – | – |
| CCCCC(CC)CNC(=N)NC(=N)NCCCCCCNC(=N)NC(=N)NCC(CC)CCCC (stereo not shown) [Alexidine dihydrochloride, reference compound] | 100% | 63.5% | – | – |
| COc1cc(-c2ccc(N=Nc3ccc4c(S(=O)(=O)[O-])cc(S(=O)(=O)[O-])c(N)c4c3O)c(OC)c2)ccc1N=Nc1ccc2c(S(=O)(=O)[O-])cc(S(=O)(=O)[O-])c(N)c2c1O.[Na+].[Na+].[Na+].[Na+] [Chicago Sky blue 6B, reference compound] | 100% | – | 69% | – |
| COc1ccc2c(C)nc(NC3=NC(C)(C)CC(C)=N3)nc2c1 [Compound 5309857] | 77.3% | – | 59.9% | – |
| COc1cccc2c1C(=O)c1c(O)c3c(c(O)c1C2=O)C[C@@](O)(C(C)=O)C[C@@H]3O[C@H]1C[C@H](N)[C@H](O)[C@H](C)O1 [Daunorubicin hydrochloride, reference compound] | 98.1% | – | – | 100% |
| COc1cccc2c1C(=O)c1c(O)c3c(c(O)c1C2=O)C[C@@](O)(C(=O)CO)C[C@@H]3O[C@H]1C[C@H](N)[C@H](O)[C@H](C)O1 [Doxorubicin hydrochloride, reference compound] | 100% | 100% | – | – |
| O=C1c2c(O)ccc(O)c2C(=O)c2c(NCCNCCO)ccc(NCCNCCO)c21 [Mitoxantrone dihydrochloride, reference compound] | 100% | 100% | – | – |
| COc1ccc2nc(C)cc(NCCCCCCCCCNc3cc(C)nc4ccc(OC)cc34)c2c1 [NSC10010] | 93.7% | – | 90.3% | – |
| CCN(CC)CCCC(C)Nc1nc(C)cc(Nc2ccc3nc(C)cc(N)c3c2)n1 (stereo not shown) [NSC23766, reference compound] | 94.7% | – | 100% | – |
| Cc1cc(N)c2cc(NC(=O)/C=C/c3ccccc3Cl)ccc2n1 [NSC33353] | 100% | – | 100% | – |
| Cc1cc2nc3ccc(N(C)C)cc3[s+]c2cc1N [NSC36758] | 83.9% | 100% | – | – |
| O=C(Nc1ccc(C2=NCCN2)cc1)c1ccc(C(=O)Nc2ccc(C3=NCCN3)cc2)c(Cl)c1 [NSC60339] | 100% | – | – | 100% |
| O=C(Nc1ccc(C2=NCCN2)cc1)c1ccc(Cl)c(C(=O)Nc2ccc(C3=NCCN3)cc2)c1 [NSC67436] | 100% | – | 100% | – |
| Cc1cc2c(c3oc(C4(C)OC4C4OC4C)cc(=O)c13)C(=O)c1c(O)c(C3CC(C)(N(C)C)C(O)C(C)O3)cc(C3CC(N(C)C)C(O)C(C)O3)c1C2=O (stereo not shown) [NSC70929] | 100% | – | 100% | – |
| COc1cccc2c1C(=O)c1c(O)c3c(c(O)c1C2=O)CC(O)(/C(C)=N/O)CC3OC1CC(N)C(O)C(C)O1 (stereo not shown) [NSC143491] | 97.9% | – | 100% | – |
| O=C(Nc1ccc(Nc2ccncc2)cc1)c1ccc(Nc2ccnc3ccc([N+](=O)[O-])cc23)cc1 [NSC146771] | 100% | – | 76.5% | – |

| Compound | % Inhibition T5 nuclease (T5 nuclease) | inhibition at 33.33 µM (yDna2; [1]) | % Inhibition yDna2 (yDna2; [1]) | inhibition at 33.33 µM (yDna2) |
| --- | --- | --- | --- | --- |
| Cc1cc(N)c2ccccc2[n+]1CCCCCCCCCC[n+]1c(C)cc(N)c2ccccc21 [NSC166454] | 88.9% | 55.4% | – | – |
| NC(N)=NCCCS(=O)(=O)Nc1ccc(Nc2c3ccccc3nc3cc([N+](=O)[O-])ccc23)cc1 [NSC177365] | 100% | – | 83.3% | – |
| c1ccc2c(NCCCCCCCCNc3c4ccccc4nc4ccccc34)c3ccccc3nc2c1 [NSC219734] | 100% | – | 85% | – |
| Cn1ccc(=Nc2ccc(NC(=O)c3ccc(N=c4ccn(C)c5ccc([N+](=O)[O-])cc45)cc3)cc2)cc1 [NSC260594] | 100% | – | 94.8% | – |
| COc1ccc2c(NCCCCCCNc3c4ccccc4nc4cc(OC)ccc34)c3ccccc3nc2c1 [NSC260610] | 100% | 100% | – | – |
| Cc1cc(NCCCCCCCNc2cc(C)nc3cc(N)ccc23)c2ccc(N)cc2n1 [NSC273829] | 56.5% | 74.4% | – | – |
| Nc1ccc(Cn2ccc3c4c(N)nc(N)nc4ccc32)cc1 [NSC309401] | 100% | – | 100% | – |
| CC(=O)[O-].Cc1c2cc[n+](CCN3CCCCC3)cc2c(C)c2c1[nH]c1ccc(O)cc12 [NSC311153] | 100% | – | 100% | – |
| CCN(CC)Cc1cc2[nH]c3c4ccc(Cl)cc4ncc3c2cc1OC [NSC317605] | 99.2% | – | 100% | – |
| CO[C@H]1C[C@@H]2\C=C(C)/C=C/C=C\C(=O)N[C@H](c3ccccc3)C/C=C/CC[C@H](O)CC(=O)C2=C1O [NSC343256] | 72% | – | 71% | – |
| ClN=C1C=CC=CC1=NCl [NSC344494] | 97.9% | – | 51.4% | – |
| Cl.O=C1c2cccc(NCCCNCCO)c2C(=O)c2cccc(NCCCNCCO)c21 [NSC363998] | 74.5% | – | 99% | – |
| [Mo] [NSC622124] | 96.1% | – | 93.4% | – |
| CC[N+](C)(CC)CCC[n+]1c(-c2ccccc2)c2cc(N)ccc2c2ccc(N)cc21.[I-].[I-] [Propidium Iodide, reference compound] | 100% | – | 100% | – |
| CCN(CC)CCCC(C)Nc1c2ccc(Cl)cc2nc2ccc(OC)cc12 (stereo not shown) [Quinacrine dihydrochloride, reference compound] | 55.4% | 67.8% | – | – |
| Deqalinium dichloride [reference compound] | 100% | – | 100% | – |

From article PMC5520492, “Inhibition of DNA2 nuclease as a therapeutic strategy targeting replication stress in cancer cells” (Oncogenesis, 2017)
